Results on one compound are retold here after US8389567B2, “Compounds that modulate intracellular calcium” (Calcimedica, Inc., priority 2007, dated 2013).

As a reminder, the IC50 is the concentration at which inhibition is half-maximal.

The subject of assay [1] is store-operated calcium entry in HEK[STIM1] cells. The note with it: read-out: IC50 for inhibition of calcium entry, thapsigargin store depletion, readdition of external calcium, pre-incubation with increasing doses. As to the method: (§1) To test whether the Ca^2+ entry pathway constitutively activated by STIM 1 overexpression is pharmacologically similar to endogenous SOCE, HEK[STIM1] cells are pre-incubated with increasing doses of 2-APB and STIM1-induced Ca^2+ entry is measured.

Assay [2] concerns STIM1-induced Ca2+ entry in HEK[STIM1] cells. Here is the method: as §1
The subject of assay [3] is store-operated calcium entry in HEK-Zeo control cells. The note with it: read-out: IC50 for inhibition of calcium entry, thapsigargin store depletion, readdition of external calcium, pre-incubation with increasing doses. As to the method:
as §1

In the case of `NCCOB(c1ccccc1)c1ccccc1` [Compound 2-APB, 2-aminoethoxydiphenyl borate], the IC50 in assay [1] is 10.5 µM; in assay [2] (read-out: IC50 for inhibition of constitutive calcium entry, absence of store depletion) it was 10.8 µM; in assay [3], 11.8 µM. Further, the “effect on calcium entry at lower concentrations” value in assay [2] (absence of store depletion, lower concentrations of 2-APB (biphasic effect)) is listed as “potentiated”.
